We go through 20 compounds from PubChem BioAssay (NCI).

Molecules are shown by their SMILES.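 A five-concentration, 48-hour dose response in 96-well plates underlies each endpoint, interpolated linearly between surrounding concentrations. TGI denotes the concentration required for complete inhibition of growth.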 Some results are limits rather than exact numbers.

One assay deals with TK-10 renal. Nature of the assay: inhibition of tumour cell growth, NCI panel, 48 h.
Take `CC(C)c1ccc(/C=C2/C=C(c3ccc4ccccc4c3)OC2=O)cc1`: the TGI was > 100 µM.

For `COc1cc(/C=C/C(=N\NS(=O)(=O)c2ccc(C)cc2)c2sc(NNC(C)=O)nc2C)ccc1O`, the TGI is > 100 µM.

As to `Oc1ccc(-c2nc(-c3cccnc3)c(-c3ccc(F)cc3)[nH]2)cc1`, the TGI came out at 36.2 µM.

Regarding `CCCCCCCCCCCOc1ccc(C(=O)C(=O)c2ccc(OCCCCCCCCCCC)c(OCCCCCCCCCCC)c2)cc1OCCCCCCCCCCC`, the TGI was > 100 µM.

`COc1cc(/C=C2\S/C(=N/Nc3nc(-c4ccc(Br)cc4)cs3)NC2=O)cc(OC)c1OC` yielded a TGI of 36.6 µM.

Take `CCOC(=O)Nn1c(C)nnc1-c1ccccc1`: the TGI was > 100 µM.

For the compound `COc1ccc(/C=C2\CCC(C)C3=C2NC(=S)NC3c2ccc(OC)c(OC)c2)cc1OC` (stereo not given), the TGI was > 31.6 µM.

Take `O=[N+]([O-])/C(C(Cl)=C(Cl)Cl)=C(\SCc1ccccc1)N1CCCCC1`: the TGI is > 100 µM.

In the case of `CC(C)/C(Cl)=N\OC(=O)Nc1ccc(S(N)(=O)=O)cc1`, the TGI worked out at 31.8 µM.

For `CC1C=C(CCCCCCCCCCCC[C@@H](O)[C@@H]2CC[C@@H]([C@@H]3CC[C@@H](C(O)CCCCCCCCCCCCC4=C[C@H](C)OC4=O)O3)O2)C(=O)O1` (stereo not given in full), the TGI was > 100 µM.

The compound `CNC(=O)OCC1=C(COC(=O)NC)C(C)N(c2ccc(OC)cc2)C1` (stereo not given) had a TGI of 73 µM.

On to `O=C1c2ccccc2C2C1N2C(=O)C(F)(F)F` (stereo not given), for which the TGI is > 100 µM.

As for `CC(=O)NC1=C(NCCC(C)C)C(=O)c2ccccc2C1=O`, the TGI is > 50 µM.

As to `N#CC1=C(N)N(c2ccccc2)C(c2ccco2)C1(C#N)C#N` (stereo not given), the TGI was 31.5 µM.

As for `O=S1(=O)NC(=NCc2c[nH]c3ccccc23)N(c2ccccc2)c2ccncc21`, the TGI is > 100 µM.

Consider `CC(=O)NNc1nc(C)c(C(=O)NNC(=O)C(=O)Nc2c(Cl)cc([N+](=O)[O-])cc2Cl)s1`, for which the TGI is > 100 µM.

For the compound `Cc1ccsc1/C=N/Nc1ncccn1`, the TGI is > 100 µM.

As to `N=c1n(C(=O)N2CCCC2)c2cc(Cl)ccc2n1C1=NCCN1`, the TGI is > 100 µM.

Consider `Nc1cccc2cc(Cl)cnc12`, for which the TGI was > 100 µM.

For `CCc1ccc(CCN2CCCCC2)nc1`, the TGI is > 100 µM.

The subject of another assay is OVCAR-3 ovarian. Nature of the assay: inhibition of tumour cell growth, NCI panel, 48 h.
Regarding `CC(C)c1ccc(/C=C2/C=C(c3ccc4ccccc4c3)OC2=O)cc1`, the TGI was > 100 µM.

As to `COc1cc(/C=C/C(=N\NS(=O)(=O)c2ccc(C)cc2)c2sc(NNC(C)=O)nc2C)ccc1O`, the TGI is > 100 µM.

Consider `Oc1ccc(-c2nc(-c3cccnc3)c(-c3ccc(F)cc3)[nH]2)cc1`, for which the TGI is 31.1 µM.

Turning to `CCCCCCCCCCCOc1ccc(C(=O)C(=O)c2ccc(OCCCCCCCCCCC)c(OCCCCCCCCCCC)c2)cc1OCCCCCCCCCCC`, the TGI was > 100 µM.

With `COc1cc(/C=C2\S/C(=N/Nc3nc(-c4ccc(Br)cc4)cs3)NC2=O)cc(OC)c1OC`, the TGI was 30.3 µM.

For `CCOC(=O)Nn1c(C)nnc1-c1ccccc1`, the TGI was > 100 µM.

With `COc1ccc(/C=C2\CCC(C)C3=C2NC(=S)NC3c2ccc(OC)c(OC)c2)cc1OC` (stereo not given), the TGI was > 31.6 µM.

Compound `O=[N+]([O-])/C(C(Cl)=C(Cl)Cl)=C(\SCc1ccccc1)N1CCCCC1` displayed a TGI of 34.6 µM.

Regarding `CC(C)/C(Cl)=N\OC(=O)Nc1ccc(S(N)(=O)=O)cc1`, the TGI amounted to 28.2 µM.

As for `CC1C=C(CCCCCCCCCCCC[C@@H](O)[C@@H]2CC[C@@H]([C@@H]3CC[C@@H](C(O)CCCCCCCCCCCCC4=C[C@H](C)OC4=O)O3)O2)C(=O)O1` (stereo not given in full), the TGI is > 100 µM.

For `CNC(=O)OCC1=C(COC(=O)NC)C(C)N(c2ccc(OC)cc2)C1` (stereo not given), the TGI is > 100 µM.

Regarding `O=C1c2ccccc2C2C1N2C(=O)C(F)(F)F` (stereo not given), the TGI was > 100 µM.

With `CC(=O)NC1=C(NCCC(C)C)C(=O)c2ccccc2C1=O`, the TGI was > 50 µM.

`N#CC1=C(N)N(c2ccccc2)C(c2ccco2)C1(C#N)C#N` (stereo not given) yielded a TGI of 56.7 µM.

For `O=S1(=O)NC(=NCc2c[nH]c3ccccc23)N(c2ccccc2)c2ccncc21`, the TGI is > 100 µM.

`CC(=O)NNc1nc(C)c(C(=O)NNC(=O)C(=O)Nc2c(Cl)cc([N+](=O)[O-])cc2Cl)s1` returned a TGI of 52.8 µM.

On to `Cc1ccsc1/C=N/Nc1ncccn1`, for which the TGI is > 100 µM.

As for `N=c1n(C(=O)N2CCCC2)c2cc(Cl)ccc2n1C1=NCCN1`, the TGI was > 100 µM.

For `Nc1cccc2cc(Cl)cnc12`, the TGI is > 100 µM.

Consider `CCc1ccc(CCN2CCCCC2)nc1`, for which the TGI is > 100 µM.

The next assay deals with SNB-19 CNS. The assay is described as follows: inhibition of tumour cell growth, NCI panel, 48 h.
For `CC(C)c1ccc(/C=C2/C=C(c3ccc4ccccc4c3)OC2=O)cc1`, the TGI was > 100 µM.

Turning to `COc1cc(/C=C/C(=N\NS(=O)(=O)c2ccc(C)cc2)c2sc(NNC(C)=O)nc2C)ccc1O`, the TGI is > 100 µM.

Turning to `Oc1ccc(-c2nc(-c3cccnc3)c(-c3ccc(F)cc3)[nH]2)cc1`, the TGI amounted to 60.8 µM.

For `CCCCCCCCCCCOc1ccc(C(=O)C(=O)c2ccc(OCCCCCCCCCCC)c(OCCCCCCCCCCC)c2)cc1OCCCCCCCCCCC`, the TGI is > 100 µM.

`COc1cc(/C=C2\S/C(=N/Nc3nc(-c4ccc(Br)cc4)cs3)NC2=O)cc(OC)c1OC` gave a TGI of 67.7 µM.

On to `CCOC(=O)Nn1c(C)nnc1-c1ccccc1`, for which the TGI was > 100 µM.

Turning to `COc1ccc(/C=C2\CCC(C)C3=C2NC(=S)NC3c2ccc(OC)c(OC)c2)cc1OC` (stereo not given), the TGI was > 31.6 µM.

Regarding `O=[N+]([O-])/C(C(Cl)=C(Cl)Cl)=C(\SCc1ccccc1)N1CCCCC1`, the TGI was > 100 µM.

`CC(C)/C(Cl)=N\OC(=O)Nc1ccc(S(N)(=O)=O)cc1`: the TGI is > 78.7 µM.

For the compound `CC1C=C(CCCCCCCCCCCC[C@@H](O)[C@@H]2CC[C@@H]([C@@H]3CC[C@@H](C(O)CCCCCCCCCCCCC4=C[C@H](C)OC4=O)O3)O2)C(=O)O1` (stereo not given in full), the TGI is > 100 µM.
